Measurements from patent US12661410B2, “Compounds for targeted degradation of RET” (C4 Therapeutics, Inc., priority 2020, dated 2026).
Residue numbers refer to the chain shown, from its start. Like-named read-outs stand apart in the source and are kept apart here.

Tests used:
RET (658-1114) = molecular target: T1, RET (658-1114) (Homo sapiens, UniProt P07949); test: HiBiT-Degradation, RET wild-type degradation assay (Nano-Glo HiBiT Lytic), 293T.144 cells; assay type: cell-based; conditions: for Emax / DC50: 6.0 hours
T1 construct: 658-1114; expressed in transfected cells; host or cells: 293T.144 (293T cells, generated in-house)
T1 sequence (P07949 658-1114): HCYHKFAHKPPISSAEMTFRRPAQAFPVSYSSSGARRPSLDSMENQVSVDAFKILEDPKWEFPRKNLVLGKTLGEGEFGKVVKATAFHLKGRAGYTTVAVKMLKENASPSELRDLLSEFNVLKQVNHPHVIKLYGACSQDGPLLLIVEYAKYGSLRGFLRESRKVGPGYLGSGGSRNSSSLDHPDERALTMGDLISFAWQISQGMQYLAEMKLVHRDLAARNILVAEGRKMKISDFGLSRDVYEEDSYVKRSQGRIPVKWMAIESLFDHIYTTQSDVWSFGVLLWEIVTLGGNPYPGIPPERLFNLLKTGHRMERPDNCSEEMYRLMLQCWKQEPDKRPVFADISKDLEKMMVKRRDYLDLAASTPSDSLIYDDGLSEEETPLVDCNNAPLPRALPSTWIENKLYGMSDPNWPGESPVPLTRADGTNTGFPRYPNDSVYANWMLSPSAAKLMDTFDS
In short: (§1)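 Cells were plated and dosed with an 11-point half-log series (highest 10 μM) in duplicate. After 6 hours they were lysed with HiBiT lytic detection reagent and luminescence measured. DC50 and percent remaining protein (Emax) came from the dose-response curves.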

RET(KD: 658-1114 G810R) = molecular target: T2, RET(KD: 658-1114 G810R) (Homo sapiens, UniProt P07949, G810R); test: HiBiT-Degradation, RET G810R degradation assay (Nano-Glo HiBiT Lytic), 293T.165 cells; assay type: cell-based; conditions: for Emax / DC50: 6.0 hours
T2 construct: 658-1114; expressed in transfected cells; host or cells: 293T.165 (293T cells, generated in-house)
T2 sequence (P07949 658-1114 G810R): T1 sequence (P07949 658-1114) with G153R
In short: as §1

[1] = % remaining protein, read-out: 293T.144 RET (658-1114) 6.0 hours (Emax)
[2] = half-maximal degradation concentration, read-out: 293T.144 RET (658-1114) 6.0 hours (DC50)
[3] = % remaining protein, read-out: 293T.165 RET(KD: 658-1114 G810R) 6.0 hours (Emax)
[4] = half-maximal degradation concentration, read-out: 293T.165 RET(KD: 658-1114 G810R) 6.0 hours (DC50)
[5] = HiBiT-Degradation, read-out: 293T.144 RET (658-1114) 6.0 hours (DC50)
[6] = HiBiT-Degradation, read-out: 293T.144 RET (658-1114) 6.0 hours (Emax)
[7] = HiBiT-Degradation, read-out: 293T.165 RET(KD: 658-1114 G810R) 6.0 hours (DC50)

| SMILES | 293T.144 RET (658-1114) 6.0 hours (IP) [nM] (RET (658-1114)) | Emax (RET (658-1114); [1]) | DC50 (RET (658-1114); [2]) | 293T.165 RET(KD: 658-1114 G810R) 6.0 hours (IP) [nM] (RET(KD: 658-1114 G810R)) | Emax (RET(KD: 658-1114 G810R); [3]) | DC50 (RET(KD: 658-1114 G810R); [4]) | 293T.144 RET (658-1114) 6.0 hours (IP) [nM] (RET (658-1114); HiBiT-Degradation) | DC50 (RET (658-1114); [5]) | Emax (RET (658-1114); [6]) | 293T.165 RET(KD: 658-1114 G810R) 6.0 hours (Emax) (RET(KD: 658-1114 G810R); HiBiT-Degradation) | 293T.165 RET(KD: 658-1114 G810R) 6.0 hours (IP) [nM] (RET(KD: 658-1114 G810R); HiBiT-Degradation) | DC50 (RET(KD: 658-1114 G810R); [7]) | HiBiT-Degradation 293T.144 RET (658-1114) 6.0 hours (IP) [nM] (RET (658-1114); RET wild-type) | DC50 (RET (658-1114); RET wild-type, read-out: HiBiT-Degradation 293T.144 RET (658-1114) 6.0 hours (DC50)) | Emax (RET (658-1114); RET wild-type, read-out: HiBiT-Degradation 293T.144 RET (658-1114) 6.0 hours (Emax)) | HiBiT-Degradation 293T.165 RET(KD: 658-1114 G810R) 6.0 hours (IP) [nM] (RET(KD: 658-1114 G810R); RET G810R) | DC50 (RET(KD: 658-1114 G810R); RET G810R, read-out: HiBiT-Degradation 293T.165 RET(KD: 658-1114 G810R) 6.0 hours (DC50)) | Emax (RET(KD: 658-1114 G810R); RET G810R, read-out: HiBiT-Degradation 293T.165 RET(KD: 658-1114 G810R) 6.0 hours (Emax)) |
| --- | --- | --- | --- | --- | --- | --- | --- | --- | --- | --- | --- | --- | --- | --- | --- | --- | --- | --- |
| CC(C)(C)OC(=O)N1[C@@H]2COC[C@H]1CN(c1ccc(-c3nc(-c4cnn([C@H]5CC[C@@H](N6CCN(c7ccc(NC8CCC(=O)NC8=O)cc7F)CC6)CC5)c4)cn4ncc(C#N)c34)cn1)C2 (single isomer, unassigned) [Compound 159] | ++++ (<50 nM = ++++) | < 30% | < 50 nM | ++++ (<50 nM = ++++) | < 30% | < 50 nM | – | – | – | – | – | – | – | – | – | – | – | – |
| COc1ccc(CN2C3COCC2CN(c2ccc(-c4nc(-c5cnn([C@H]6CC[C@H](N7CCN(c8cc(F)c(NC9CCC(=O)NC9=O)cc8F)CC7)CC6)c5)cn5ncc(C#N)c45)cn2)C3)cn1 (relative stereo) [Compound 162, 6-[1-[4-[4-[4-[(2,6-dioxo-3-piperidyl)amino]-2,5-difluoro-phenyl]piperazin-1-yl]cyclohexyl]pyrazol-4-yl]-4-[6-[9-[(6-methoxy-3-pyridyl)methyl]-3-oxa-7,9-diazabicyclo[3.3.1]nonan-7-yl]-3-pyridyl]pyrazolo[1,5-a]pyrazine-3-carbonitrile] | ++++ (<50 nM = ++++) | < 30% | < 50 nM | ++++ (<50 nM = ++++) | < 30% | < 100 nM | – | – | – | – | – | – | – | – | – | – | – | – |
| CCC1(C(=O)NC(C)C)CCN(c2ccc(-c3nc(-c4cnn(C5CCN(C(=O)CN6CCC(c7ccc(NC8CCC(=O)NC8=O)cc7)CC6)CC5)c4)cn4ncc(C#N)c34)cn2)CC1 (centres unmarked) [Compound 31, 1-(5-(3-Cyano-6-(1-(1-(2-(4-(4-((2,6-dioxopiperidin-3-yl)amino)phenyl)piperidin-1-yl)acetyl)piperidin-4-yl)-1H-pyrazol-4-yl)pyrazolo[1,5-a]pyrazin-4-yl)pyridin-2-yl)-4-ethyl-N-isopropylpiperidine-4-carboxamide] | – | – | – | – | < 30% | < 50 nM | ++++ (< 50 nM = ++++) | < 50 nM | < 30% | ++++ (< 30% = ++++) | ++++ (< 50 nM = ++++) | < 50 nM | – | – | – | – | – | – |
| CC(C)NC(=O)C1(C)CCN(c2ccc(-c3cc(-c4cnn(C5CCN(C(=O)CN6CCC(c7ccc(NC8CCC(=O)NC8=O)cc7F)CC6)CC5)c4)cn4ncc(C#N)c34)cn2)CC1 (centres unmarked) [Compound 2, 1-(5-(3-Cyano-6-(1-(1-(2-(4-(4-((2,6-dioxopiperidin-3-yl)amino)-2-fluorophenyl)piperidin-1-yl)acetyl)piperidin-4-yl)-1H-pyrazol-4-yl)pyrazolo[1,5-a]pyridin-4-yl)pyridin-2-yl)-N-isopropyl-4-methylpiperidine-4-carboxamide] | – | – | – | – | < 50% | < 50 nM | ++++ (< 50 nM = ++++) | < 50 nM | < 30% | +++ (<50% = +++) | ++++ (< 50 nM = ++++) | < 50 nM | – | – | – | – | – | – |
| CCC1(C(=O)NC(C)C)CCN(c2ccc(-c3nc(-c4cnn(C5CCN(C(=O)CC6(O)CCN(c7cc(OC)c(NC8CCC(=O)NC8=O)cc7Cl)CC6)CC5)c4)cn4ncc(C#N)c34)cn2)CC1 (centres unmarked) [Compound 90, 1-[5-[6-[1-[1-[2-[1-[2-chloro-4-[(2,6-dioxo-3-piperidyl)amino]-5-methoxy-phenyl]-4-hydroxy-4-piperidyl]acetyl]-4-piperidyl]pyrazol-4-yl]-3-cyano-pyrazolo[1,5-a]pyrazin-4-yl]-2-pyridyl]-4-ethyl-N-isopropyl-piperidine-4-carboxamide] | ++++ (<50 nM = ++++) | < 30% | < 50 nM | ++++ (<50 nM = ++++) | < 30% | < 50 nM | – | – | – | – | – | – | – | – | – | – | – | – |
| CCC1(C(=O)NC(C)C)CCN(c2ccc(-c3nc(-c4cnn(CC5CCN(C(=O)CC6(O)CCN(c7ccc(NC8CCC(=O)NC8=O)cc7F)CC6)CC5)c4)cn4ncc(C#N)c34)cn2)CC1 (centres unmarked) [Compound 84, 1-[5-[3-cyano-6-[1-[[1-[2-[1-[4-[(2,6-dioxo-3-piperidyl)amino]-2-fluoro-phenyl]-4-hydroxy-4-piperidyl]acetyl]-4-piperidyl]methyl]pyrazol-4-yl]pyrazolo[1,5-a]pyrazin-4-yl]-2-pyridyl]-4-ethyl-N-isopropyl-piperidine-4-carboxamide] | – | – | – | – | < 30% | < 100 nM | – | – | – | – | – | – | ++++ (< 50 nM = ++++) | < 50 nM | < 30% | ++++ (< 50 nM = ++++) | < 100 nM | < 30% |
| COc1cc(N2CCN(C3CCC(n4cc(-c5cn6ncc(C#N)c6c(-c6ccc(N7CC8COCC(C7)N8Cc7ccccn7)nc6)n5)cn4)CC3)CC2)c(F)cc1NC1CCC(=O)NC1=O (centres unmarked) [Compound 205, 6-[1-[4-[4-[4-[(2,6-dioxo-3-piperidyl)amino]-2-fluoro-5-methoxy-phenyl]piperazin-1-yl]cyclohexyl]pyrazol-4-yl]-4-[6-[9-(2-pyridylmethyl)-3-oxa-7,9-diazabicyclo[3.3.1]nonan-7-yl]-3-pyridyl]pyrazolo[1,5-a]pyrazine-3-carbonitrile] | ++++ (<50 nM = ++++) | < 30% | < 50 nM | +++ (<100 nM = +++) | < 30% | < 100 nM | – | – | – | – | – | – | – | – | – | – | – | – |
| N#Cc1cnn2cc(-c3ccc(N4CCN(C(=O)CN5CCC(c6ccc(NC7CCC(=O)NC7=O)cc6)CC5)CC4)cc3)cc(-c3ccc(N4CCC(Nc5ccccc5)CC4)nc3)c12 (centres unmarked) [Compound 20, 6-(4-(4-(2-(4-(4-((2,6-Dioxopiperidin-3-yl)amino)phenyl)piperidin-1-yl)acetyl)piperazin-1-yl)phenyl)-4-(6-(4-(phenylamino)piperidin-1-yl)pyridin-3-yl)pyrazolo[1,5-a]pyridine-3-carbonitrile] | – | – | – | – | < 30% | < 100 nM | ++++ (< 50 nM = ++++) | < 50 nM | < 30% | ++++ (< 30% = ++++) | +++ (<100 nM = +++) | < 100 nM | – | – | – | – | – | – |
